US20070014786A1, “Methods for treating taxol-induced gut disorder” (RINAT NEUROSCIENCE CORP., priority 2003, published 2007)
pKd: −log10 of the molar value.

Experiments:
[1] = test system: Female Swiss-Webster mice; assay: Taxol-induced gut disorder mouse model: abdominal distension score; conditions: second experiment; taxol 300, 375 or 450 mg/m^2; scored weekly
Method: Female Swiss-Webster mice, eight weeks old were treated with vehicle alone (control), taxol alone, or agonist anti-trkC mouse monoclonal antibody 2256 (PCT WO 01/98361; Urfer et al. J. Biol. Chem. (1998) 273:5829-5840)) and taxol. Taxol was obtained from Calbiochem and prepared as a 20 mg/kg solution in Cremophor/ethanol (50:50 w/w), which was diluted with saline (1 part Cremophor/ethanol to four parts saline vol:vol), filtered through a 0.1 micron filter and administered intraperitoneally (“IP”) within 30 minutes of preparation. All treatment animals received one round of three taxol or control (vehicle) treatments every other day for three doses, i.e., day 1, 3 and 5 of the protocol. […] Taxol dose was determined on a mg/m^2 basis, using the formula that body surface area (in square cm) equals 10.5 times the weight in grams to the two-thirds power. […]
Taxol-induced gut disorder was assessed by measuring degree and quality of abdominal distension and intestinal hypertrophy after lifting the individual mouse by the tail. Degree and quality of taxol-induced abdominal distension was scored by a blinded observer using the following five point scale: • 0-no noticeable abdominal bulge • 1-slight bulge • 2-distinct bulge (may be full stomach) • 3-fat mouse • 4-definite lumpy abdomen • 5-swollen abdomen […]

[2] = test system: Female Swiss-Webster mice; assay: Taxol-induced gut disorder mouse model: intestinal hypertrophy (weight and length of GI tract) and autopsy; type: in vivo
Method: Intestinal hypertrophy was assessed by measuring weight and length of the gastrointestinal (“GI”) tract as follows: animals were sacrificed, and the weight and length of the GI tract was assessed as follows: the entire GI tract was removed, emptied of any contents, and weighed. The GI tract was then separated into stomach, small intestine, and caecum plus large intestine and those parts were individually weighed.
Selected animals were sacrificed and subjected to autopsy. […] Ascites production was not observed in control animals.
Intestinal hypertrophy was assessed as described above. […] Ascites production was not observed in control animals.

[3] = molecular target: T1, low affinity receptor (LNGFR), p75NTR or p75 (Homo sapiens, UniProt P08138); conditions: according to current knowledge (background); cited from earlier work
T1 sequence (P08138 29-427): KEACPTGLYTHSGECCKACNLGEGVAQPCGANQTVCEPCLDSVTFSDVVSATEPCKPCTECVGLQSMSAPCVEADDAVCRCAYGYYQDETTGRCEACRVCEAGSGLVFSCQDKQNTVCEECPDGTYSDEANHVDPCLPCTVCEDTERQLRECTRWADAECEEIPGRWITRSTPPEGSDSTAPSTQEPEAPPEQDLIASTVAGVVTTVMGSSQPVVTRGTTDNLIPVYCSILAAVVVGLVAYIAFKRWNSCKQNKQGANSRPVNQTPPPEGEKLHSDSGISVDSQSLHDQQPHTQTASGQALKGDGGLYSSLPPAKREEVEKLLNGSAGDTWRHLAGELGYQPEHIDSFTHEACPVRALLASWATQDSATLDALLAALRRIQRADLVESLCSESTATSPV

[4] = taxol 450 mg/m^2 (four weeks) or 375 mg/m^2 (six weeks)

Molecule	gut distension (FIG. 2) [1]	length of the GI tract (FIG. 8) [2, 4]	raw weight of the caecum plus large intestine (FIG. 9) [2, 4]	weight of the caecum plus large intestine (FIG. 6) ([2]; taxol 450 mg/m^2, four weeks)	weight of the small intestine (FIG. 5) ([2]; taxol 450 mg/m^2, four weeks)	weight of the GI tract from stomach through colon (FIG. 4) ([2]; taxol 450 mg/m^2, sacrificed at four weeks)	intestinal obstruction(s) and/or stool softening or diarrhea ([2]; taxol-treated animals at autopsy)	ascites in the peritoneum at autopsy ([2]; taxol-treated animals with abdominal distension, not observed in control animals)	pKd [3]
CC(=O)O[C@H]1C(=O)[C@@]2(C)[C@H]([C@H](OC(=O)c3ccccc3)[C@]3(O)C[C@H](OC(=O)[C@H](O)[C@@H](NC(=O)c4ccccc4)c4ccccc4)C(C)=C1C3(C)C)[C@]1(OC(C)=O)CO[C@@H]1C[C@@H]2O [taxol, paclitaxel]	resulted in gut distension	significant decrease	significant increase	significant increase	significant increase	significant increase	exhibited intestinal obstruction(s) and/or stool softening or diarrhea	Production of ascites in the peritoneum was noted	
nerve growth factor [NGF]									8.70
neurotrophin-3 [NT-3]									8.70
